Test: Lung PK/PD: PK study after oral aspiration
Assay type: in vivo
Conditions: C57bl/6n, mouse, lung / plasma, mice, 3% glycerol in PBS pH=4, read-out: (lung AUC0-4):(plasma AUC0-4) ratio
Description: C57bl/6n mice were acclimated for at least 3 days before use. On the day of the experiment, animals were grouped into sample sizes of 5 (n=10 for the TGF-β stimulated group). The compound of Formula I (formulated in 3% glycerol in PBS; pH=4) was pre-treated via oral aspiration (OA; animals are forced to aspirate solution into the lungs by covering their nose). All oral aspirations were performed using a 50 μL dosing volume and accompanied by the appropriate vehicle control groups. Following compound OA treatment, the animals were returned to their home cages and monitored. Compound pre-treatment occurred 4 hours prior to harvest for screening and dose-response studies; duration studies had variable compound pre-treatment times. One hour prior to harvest, animals were challenged via oral aspiration a second time with PBS vehicle or recombinant human TGF-β1 protein (0.01 μg per animal dissolved in 1 part 4 mM HCl and 2 parts 3% glycerol in PBS). Five minutes prior to harvest, animals were deeply anesthetized under isoflurane and euthanized via cervical dislocation. […]
Left lung lobes were harvested immediately after BALF collection. […] Following collection of the supernatant, a total protein quantification assay (Bradford) was performed to normalize the concentrations of all samples. […]
Plasma, lung and macrophage drug concentrations were quantified. […]

Compound `C[C@@H]1CN(CCNc2cnc3ccc(-c4nc[nH]c4-c4cc(Cl)ccc4F)nc3c2)C[C@H](C)N1` [compound of Formula I, 6-(5-(5-chloro-2-fluorophenyl)-1H-imidazol-4-yl)-N-(2-((3S,5R)-3,5-dimethylpiperazin-1-yl)ethyl)-1,5-naphthyridin-3-amine] has a Kp of over 75.

From patent US20210387983A1, “CRYSTALLINE ALK5 INHIBITORS AND USES THEREOF” (THERAVANCE BIOPHARMA R&D IP, LLC, priority 2020, published 2021)
